Measured values: US9194863B2, “Treatment of pain” (priority 2011, dated 2015)

Columns and labels:
[1] = tested on: DRG neurons; assay: Fura-2 intracellular Ca2+ imaging in isolated DRG neurons; type: cell-based, mouse; settings: for fraction of sensitive DRG neurons in Trpm3−/− preparations versus Trpm3+/+: Trpm3−/− mice
Description: (§1) Human embryonic kidney cells, HEK293T, were grown in Dulbecco's modified Eagle's medium (DMEM) containing 10% (v/v) human serum, 2 mM L-glutamine, 2 units/ml penicillin, and 2 mg/ml streptomycin at 37° C. in a humidity-controlled incubator with 10% CO2. HEK293T cells were transiently transfected with murine TRPM3α2 (accession number AJ 544535) in the bicistronic pCAGGS/IRES-GFP vector, using Mirus TransIT-293 (Mirus corporation; Madison USA). Transfected cells were visualized by green fluorescence protein (GFP) expression whereas GFP negative cells from the same batch were used as controls. TG and DRG neurons from adult (postnatal weeks 8-12) male mice were isolated as described previously (Karashima et al., 2007). HEK293T cells stably transfected with TRPM3α2 were developed using the Flp-In System (Invitrogen).
(§2) Fura-2-based ratiometric intracellular Ca^2+ measurements were performed as described previously (Vriens et al., 2007). The following procedure was used to distinguish stimulus-induced responses from background variations in fluorescence. First, we calculated the time derivative of the fluorescence ratio (dRatio/dt), and the standard deviation (SD) of dRatio/dt in the absence of any stimulus. A positive response was noted when a stimulus caused an increase of dRatio/dt exceeding 5×SD. […] For every condition, a minimum of 100 cells derived from at least three separated isolations and in at least twelve independent measurements were analyzed.

[2] = molecular target: T1, TRPV1 (Homo sapiens, UniProt Q8NER1); assay: Ca2+ imaging of TRPV1-mediated responses in the presence of AMG 9810; type: cell-based
T1 construct: expressed in transfected cells; host or cells: HEK293T, transient

[3] = molecular target: T2, TRPM3 (Mus musculus, UniProt J9SQF3); assay: Ca2+ imaging of TRPM3-mediated responses in the presence of AMG 9810; type: cell-based
Description: as §2

[4] = tested on: TG neurons; assay: Fura-2 intracellular Ca2+ imaging in isolated TG neurons; type: cell-based, mouse; settings: for fraction of sensitive TG neurons in Trpm3−/− preparations versus Trpm3+/+: Trpm3−/− mice
Description: as §1, §2

[5] = tested on: TG neurons; assay: Whole-cell patch-clamp on TG neurons; type: cell-based, mouse
Description: (§3) Whole-cell membrane currents were measured with an EPC-10 (HEKA Elektronik, Lambrecht, Germany). The sampling rate was 20 kHz and currents were digitally filtered at 2.9 kHz. For recordings on HEK293T cells, the extracellular solution contained (in mM): 138 NaCl, 5.4 KCl, 2 MgCl2, 2 CaCl2, 10 glucose, 10 HEPES (pH 7.2 with NaOH), and the pipette solution contained (in mM): 100 CsAsp, 45 CsCl, 10 EGTA, 10 HEPES, 1 MgCl (pH 7.2 with CsOH). For recordings on sensory neurons, the extracellular solution contained (in mM): 140 NaCl, 4 KCl, 2 MgCl2, 100 nM TTX, 10 TRIS (pH 7.4 with HCl), and the pipette solution contained (in mM): 140 CsCl, 0.6 MgCl2, 1 EGTA, 10 HEPES, 5 TEA (pH 7.2 with CsOH). To determine the I-V relationship of PS induced currents in neurons, all measurements were performed under monovalent free extracellular conditions in order to suppress other cationic conductances present in DRG neurons. The extracellular solution contained in mM 2 CaCl2, 2 MgCl2, 10 HEPES, 280 D-Mannitol (pH 7.2 with NMDG).

[6] = tested on: mice; assay: Nocifensive behavior after injection into the plantar skin of the hind paw; type: in vivo, mouse
Description: (§4) Hind paw injections, drinking tests, thermal gradient tests, temperature choice tests, hot plate, cold plate, tail clip and tail immersion assays were performed as previously described (Cao et al., 1998; Caterina et al., 2000; Karashima et al., 2009; Mocrich et al., 2005). To evoke inflammatory hyperalgesia, Complete Freund's Adjuvant (CFA, Sigma) (50 μl) was injected intraplantarly in both hindpaws 24 h before behavioral testing. Corn oil was used as vehicle control. To obtain pharmacological inhibition of TRPV1, AMG 9810 (Tocris Bioscience) dissolved in DMSO was injected i.p at 3 mg/kg during consecutive 7 days (Gavva et al., 2007; Gavva et al., 2005). DMSO was used as vehicle control. All animal experiments were carried out in accordance with the European Union Community Council guidelines and were approved by the local ethics committee.

[7] = molecular target: T3, TRPM3α2 (Mus musculus, UniProt J9SQF3); assay: Intracellular Ca2+ responses in HEK293T cells transiently expressing TRPM3; type: cell-based, murine; settings: PS 20 μM, capsaicin 2 μM
T3 construct: expressed in transfected cells; host or cells: HEK293T, transient
Description: as §1
as §2, with “stimulus.” for “stimulus. A positive response was noted when a stimulus caused an increase of dRatio/dt exceeding 5×SD.”

[8] = molecular target: T1, TRPV1; assay: Intracellular Ca2+ responses in HEK293T cells transiently expressing TRPV1; type: cell-based; settings: PS 20 μM, capsaicin 2 μM
Description: as §2

[9] = molecular target: TRPA1 (Homo sapiens, UniProt O75762); settings: read-out: EC50 as agonist of TRPA1; cited from earlier work
[10] = molecular target: T2, TRPM3; settings: cited from earlier work
[11] = tested on: mice; assay: Aversive drinking test; type: in vivo, mouse; settings: PS 750 μM in drinking water
Description: To evaluate the contribution of TRPM3 to trigeminal nociception, we used an aversive drinking test (Caterina et al., 2000). Over a period of 3 days, mice were allowed to drink from a bottle of water for only 1 hour/day. On the fourth day, this solution was supplemented with PS (750 μM). In Trpm3^+/+ mice, this evoked a modest but significant aversion, as evidenced by a 30% reduction in consumed water volume (FIG. 4C).
as §4

[12] = molecular target: T3, TRPM3α2; assay: 96 well plate Fluo-4 assay of temperature-dependent Ca2+ responses, HEK293T stably expressing TRPM3; type: cell-based, murine; settings: PS at 10 μM
Description: To determine an average temperature-response relation for TRPM3, we also used a fluo-4-based assay using 96 well plates and the 7500 Real-Time PCR system (Applied Biosystems). HEK293T cells stably expressing murine TRPM3α2 (FIG. 9B) or non transfected HEK293T cells were loaded with Fluo-4-AM for 30 min, trypsinized, centrifuged, resuspended in a solution containing (in mM) 150 NaCl, 6 KCl, 2 MgCl2, 2 CaCl2, and 10 HEPES (pH 7.4 with NaOH) and transferred to a 96-well plate (at 15000-25000 cells/well; 50 μl). When indicated, PS (10 μM) was added to the wells. Fluo-4 fluorescence was measured while the well temperature was raised from 16 to 43° C. in 3-degrees steps. Background-subtracted fluorescence signals were used to calculate temperature-induced changes in fluorescence as ΔF/F16 °C, where F16 °C is the background corrected fluorescence at 16° C. and ΔF=F−F16 °C. The neurosteroids pregnenolone sulphate, progesterone and the TRPV1 activator capsaicin (all Sigma) were applied at indicated concentrations from a respectively 100 mM, 250 mM and 10 mM stock solution in DMSO.

[13] = molecular target: T2, TRPM3; assay: Intracellular Ca2+ increase by low doses of PS at room temperature and 37° C., HEK293T stably expressing TRPM3; type: cell-based, murine; design: expressed in transfected cells; settings: 100 nM PS
Description: as §1
as §2, with “stimulus.” for “stimulus. A positive response was noted when a stimulus caused an increase of dRatio/dt exceeding 5×SD.”

[14] = molecular target: T2, TRPM3; assay: Whole-cell current measurements in TRPM3-expressing HEK293T cells; type: cell-based, murine; design: expressed in transfected cells; settings: PS 5 μM
Description: as §3

[15] = Trpm3+/+ mice, PS 2.5 and 5 nmol/paw, progesterone 25 nmol/paw
[16] = Trpv1−/−, Trpa1−/− and combined Trpv1−/−/Trpa1−/− mice

T2 sequence (J9SQF3 1-1709 isoform J9SQF3-12): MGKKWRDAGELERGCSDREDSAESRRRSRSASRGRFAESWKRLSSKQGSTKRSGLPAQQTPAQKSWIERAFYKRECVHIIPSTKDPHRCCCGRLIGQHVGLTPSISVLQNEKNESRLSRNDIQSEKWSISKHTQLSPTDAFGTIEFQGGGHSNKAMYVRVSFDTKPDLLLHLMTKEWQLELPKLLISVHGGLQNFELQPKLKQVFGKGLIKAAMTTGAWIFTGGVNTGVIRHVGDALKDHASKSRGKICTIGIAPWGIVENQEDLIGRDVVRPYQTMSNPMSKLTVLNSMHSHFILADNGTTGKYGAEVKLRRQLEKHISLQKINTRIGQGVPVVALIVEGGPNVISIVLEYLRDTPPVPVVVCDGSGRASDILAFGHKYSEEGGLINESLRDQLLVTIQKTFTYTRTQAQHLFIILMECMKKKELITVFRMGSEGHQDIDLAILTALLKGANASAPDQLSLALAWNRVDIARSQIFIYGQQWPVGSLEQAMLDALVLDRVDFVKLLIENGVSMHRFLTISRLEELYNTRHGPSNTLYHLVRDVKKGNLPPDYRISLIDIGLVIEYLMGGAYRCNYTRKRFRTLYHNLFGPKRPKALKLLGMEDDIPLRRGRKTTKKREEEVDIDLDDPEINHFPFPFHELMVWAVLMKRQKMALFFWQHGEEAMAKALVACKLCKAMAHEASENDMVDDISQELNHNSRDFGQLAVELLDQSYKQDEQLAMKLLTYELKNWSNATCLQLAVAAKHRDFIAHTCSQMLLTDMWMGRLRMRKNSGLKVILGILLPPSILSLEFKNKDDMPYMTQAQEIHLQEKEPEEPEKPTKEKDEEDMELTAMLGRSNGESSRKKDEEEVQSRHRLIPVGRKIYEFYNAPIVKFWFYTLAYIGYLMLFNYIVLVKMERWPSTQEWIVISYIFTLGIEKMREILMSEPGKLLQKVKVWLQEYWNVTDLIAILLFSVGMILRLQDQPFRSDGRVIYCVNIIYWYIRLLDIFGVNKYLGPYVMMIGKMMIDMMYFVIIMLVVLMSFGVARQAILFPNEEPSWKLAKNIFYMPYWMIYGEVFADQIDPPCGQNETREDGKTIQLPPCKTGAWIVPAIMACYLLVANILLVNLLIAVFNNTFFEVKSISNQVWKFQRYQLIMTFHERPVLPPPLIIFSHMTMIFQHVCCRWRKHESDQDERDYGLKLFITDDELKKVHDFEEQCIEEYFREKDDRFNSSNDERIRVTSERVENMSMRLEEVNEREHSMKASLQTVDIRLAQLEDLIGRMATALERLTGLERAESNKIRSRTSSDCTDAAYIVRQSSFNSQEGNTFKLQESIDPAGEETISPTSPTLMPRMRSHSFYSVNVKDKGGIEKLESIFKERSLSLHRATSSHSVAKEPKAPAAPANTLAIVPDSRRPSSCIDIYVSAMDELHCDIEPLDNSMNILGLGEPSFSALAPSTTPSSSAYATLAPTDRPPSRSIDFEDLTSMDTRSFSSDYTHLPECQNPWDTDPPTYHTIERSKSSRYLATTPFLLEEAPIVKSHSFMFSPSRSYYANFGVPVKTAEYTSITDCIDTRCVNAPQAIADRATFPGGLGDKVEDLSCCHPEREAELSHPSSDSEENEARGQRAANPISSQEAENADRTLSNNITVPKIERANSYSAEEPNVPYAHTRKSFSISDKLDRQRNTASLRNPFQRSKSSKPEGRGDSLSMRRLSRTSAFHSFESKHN
T3 sequence (J9SQF3 1-1709 isoform J9SQF3-12): as above
T1 sequence (Q8NER1 whole entry, species assumed): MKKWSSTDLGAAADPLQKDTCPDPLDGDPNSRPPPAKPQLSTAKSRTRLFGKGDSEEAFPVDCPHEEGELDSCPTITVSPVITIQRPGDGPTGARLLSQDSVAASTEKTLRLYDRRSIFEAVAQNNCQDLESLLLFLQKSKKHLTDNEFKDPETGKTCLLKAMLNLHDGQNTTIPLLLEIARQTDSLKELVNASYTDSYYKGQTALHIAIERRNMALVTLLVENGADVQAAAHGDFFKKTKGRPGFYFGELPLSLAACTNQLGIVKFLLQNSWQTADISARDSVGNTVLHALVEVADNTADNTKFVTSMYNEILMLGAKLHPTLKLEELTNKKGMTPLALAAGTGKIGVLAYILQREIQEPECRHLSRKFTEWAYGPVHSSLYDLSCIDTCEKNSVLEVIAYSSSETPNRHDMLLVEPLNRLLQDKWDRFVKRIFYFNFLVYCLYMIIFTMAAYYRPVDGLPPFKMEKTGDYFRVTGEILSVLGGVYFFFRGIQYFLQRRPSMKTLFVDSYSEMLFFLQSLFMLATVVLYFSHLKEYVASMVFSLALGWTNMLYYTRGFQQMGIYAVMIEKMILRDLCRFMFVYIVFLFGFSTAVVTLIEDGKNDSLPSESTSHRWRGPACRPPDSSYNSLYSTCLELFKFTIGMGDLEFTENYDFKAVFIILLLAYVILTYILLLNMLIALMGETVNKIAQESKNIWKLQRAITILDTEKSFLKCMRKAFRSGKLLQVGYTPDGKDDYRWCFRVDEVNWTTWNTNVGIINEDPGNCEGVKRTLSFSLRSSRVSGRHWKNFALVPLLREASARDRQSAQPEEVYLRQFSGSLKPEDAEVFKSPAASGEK
TRPA1, sequence (O75762 whole entry, species assumed): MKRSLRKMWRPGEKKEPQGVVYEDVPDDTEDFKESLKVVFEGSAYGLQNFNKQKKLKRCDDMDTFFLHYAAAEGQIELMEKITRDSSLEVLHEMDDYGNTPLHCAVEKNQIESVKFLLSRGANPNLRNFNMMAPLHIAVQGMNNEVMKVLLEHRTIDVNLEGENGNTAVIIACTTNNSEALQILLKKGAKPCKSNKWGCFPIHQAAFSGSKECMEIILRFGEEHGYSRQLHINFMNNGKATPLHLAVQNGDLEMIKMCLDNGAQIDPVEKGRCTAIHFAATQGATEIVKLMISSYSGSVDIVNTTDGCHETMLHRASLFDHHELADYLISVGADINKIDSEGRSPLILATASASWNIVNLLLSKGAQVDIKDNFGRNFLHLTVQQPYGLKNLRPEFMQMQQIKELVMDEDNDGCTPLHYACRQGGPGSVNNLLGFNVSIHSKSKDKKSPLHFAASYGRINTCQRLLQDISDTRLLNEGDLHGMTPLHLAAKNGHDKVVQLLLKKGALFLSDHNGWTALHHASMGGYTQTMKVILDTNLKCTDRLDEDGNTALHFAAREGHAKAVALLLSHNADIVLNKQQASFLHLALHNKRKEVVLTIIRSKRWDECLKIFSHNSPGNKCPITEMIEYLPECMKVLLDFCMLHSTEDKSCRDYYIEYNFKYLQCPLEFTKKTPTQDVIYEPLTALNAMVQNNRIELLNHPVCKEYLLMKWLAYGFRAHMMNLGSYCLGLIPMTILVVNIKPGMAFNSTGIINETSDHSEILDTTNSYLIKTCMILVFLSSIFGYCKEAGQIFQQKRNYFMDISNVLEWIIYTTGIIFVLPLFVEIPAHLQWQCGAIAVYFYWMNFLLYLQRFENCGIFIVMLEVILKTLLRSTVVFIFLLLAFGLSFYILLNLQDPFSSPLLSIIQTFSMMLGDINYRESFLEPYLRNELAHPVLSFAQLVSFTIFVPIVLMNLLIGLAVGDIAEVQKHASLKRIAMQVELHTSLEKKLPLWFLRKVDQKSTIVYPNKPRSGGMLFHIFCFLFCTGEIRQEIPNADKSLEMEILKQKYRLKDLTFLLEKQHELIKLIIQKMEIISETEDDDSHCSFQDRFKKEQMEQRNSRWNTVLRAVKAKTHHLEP

CC(C)(C)c1ccc(/C=C/C(=O)Nc2ccc3c(c2)OCCO3)cc1 [AMG 9810, (E)-3-(4-t-butylphenyl)-N-(2,3-dihydrobenzo[b][1,4]dioxin-6-yl)acrylamide]
effect on percentage of heat responders in DRG neurons ([1]; AMG 9810 5 μM): significantly reduced | effect on capsaicin responses in DRG neurons ([1]; AMG 9810 5 μM, Trpm3+/+ and Trpm3−/− DRG neurons): completely eliminated | heat-responsive cells remaining after treatment ([1]; Trpm3−/− neurons, AMG 9810 5 μM): substantial fraction of heat-responsive cells | TRPV1-mediated heat (42° C.) and capsaicin (2 μM) responses [2]: full inhibition | TRPM3-mediated heat (42° C.) and PS (40 μM) responses [3]: unaltered

COc1cc(CNC(=O)CCCC/C=C/C(C)C)ccc1O [capsaicin]
fraction of sensitive DRG neurons in Trpm3−/− preparations versus Trpm3+/+ [1]: not changed | fraction of sensitive TG neurons in Trpm3−/− preparations versus Trpm3+/+ [4]: not changed | TG neurons responding to capsaicin ([5]; Trpm3+/+ mice, 13 of 23): 57% | TG neurons responding to capsaicin ([5]; Trpm3−/− mice, 11 of 21): 53% | nocifensive behavior (paw licking and lifting) ([6]; Trpm3−/− mice): evoked the normal nocifensive behavior | intracellular Ca2+ response of TRPM3-expressing cells [7]: insensitive | intracellular Ca2+ response of TRPV1-expressing cells [8]: responded

COC(=O)C1=C(C)NC(C)=C(C(=O)OC)C1c1ccccc1[N+](=O)[O-] [nifedipine]
EC50 [9]: 0.4 µM | EC50 ([10]; read-out: EC50 as agonist of TRPM3): 30 µM

C=CCN=C=S [MO, mustard oil]
fraction of sensitive DRG neurons in Trpm3−/− preparations versus Trpm3+/+ [1]: not changed | fraction of sensitive TG neurons in Trpm3−/− preparations versus Trpm3+/+ [4]: not changed

CC(=O)[C@H]1CC[C@H]2[C@@H]3CCC4=CC(=O)CC[C@]4(C)[C@H]3CC[C@]12C [progesterone]
nocifensive behavior (paw licking and lifting) [6, 15]: did not evoke measurable nociceptive responses | nocifensive behavior (paw licking and lifting) ([6]; Trpm3−/− mice): did not evoke measurable nociceptive responses | TRPM3 agonist activity [10]: no TRPM3 agonist activity

CC(=O)C1CCC2C3CC=C4CC(OS(=O)(=O)O)CCC4(C)C3CCC12C (centres unmarked) [PS, pregnenolone sulphate]
DRG neurons with robust and reversible calcium signals ([1]; Trpm3+/+ mice, n=303, PS 10 μM): 58% | fraction of sensitive DRG neurons in Trpm3−/− preparations versus Trpm3+/+ [1]: drastically decreased | responses in DRG neurons from TRPV1/TRPA1 knockout mice [1, 16]: conserved | TG neurons with robust and reversible calcium signals ([4]; Trpm3+/+ mice, n=273, PS 10 μM): 57% | fraction of sensitive TG neurons in Trpm3−/− preparations versus Trpm3+/+ [4]: drastically decreased | responses in TG neurons from TRPV1/TRPA1 knockout mice [4, 16]: conserved | TG neurons with inward currents of more than 10 pA ([5]; Trpm3+/+ mice, 15 of 23): 65% | TG neurons with inward currents of more than 10 pA ([5]; Trpm3−/− mice, 0 of 21): never observed | TG neurons with inward currents of more than 10 pA ([5]; Trpv1−/−/Trpa1−/− mice, 9 of 17): 53% | nocifensive behavior (paw licking and lifting) [6, 15]: evoked strong nocifensive behavior | nocifensive behavior (paw licking and lifting) ([6]; Trpm3−/− mice): completely lacked this nocifensive response | nocifensive behavior (paw licking and lifting) ([6]; combined Trpv1−/−/Trpa1−/− knockout mice): elicited a nocifensive response that was similar to that observed in Trpm3^+/+ mice | reduction in consumed water volume ([11]; Trpm3+/+ mice): 30% | aversive response in drinking test ([11]; Trpm3−/− mice): no aversive response | intracellular Ca2+ response of TRPM3-expressing cells [7]: robust responses | shift of the thermal response profile to lower temperatures [12]: 6.1±0.4 degrees | Ca2+ response to PS ([13]; 37° C.): evoked robust responses | Ca2+ response to PS ([13]; room temperature): subthreshold | current response to a low dose of PS at higher temperatures [14]: strongly potentiated
